{"source": "ChEMBL document CHEMBL1201862", "about": "“PubChem BioAssay data set” (2004)", "key": {"[1]": {"target": "T1, Neuropeptide Y receptor type 1 (Homo sapiens, UniProt P25929)", "T1 sequence (P25929 whole entry)": "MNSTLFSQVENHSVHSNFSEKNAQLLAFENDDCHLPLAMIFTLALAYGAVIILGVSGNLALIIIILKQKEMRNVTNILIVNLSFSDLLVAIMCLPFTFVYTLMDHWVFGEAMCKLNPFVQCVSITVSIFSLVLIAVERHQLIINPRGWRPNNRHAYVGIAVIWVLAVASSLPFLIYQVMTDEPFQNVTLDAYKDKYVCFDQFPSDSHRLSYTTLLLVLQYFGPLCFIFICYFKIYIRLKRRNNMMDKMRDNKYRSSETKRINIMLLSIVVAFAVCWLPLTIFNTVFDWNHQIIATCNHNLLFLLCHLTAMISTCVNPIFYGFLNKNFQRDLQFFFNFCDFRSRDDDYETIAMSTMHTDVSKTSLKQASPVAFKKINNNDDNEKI", "assay": "Fluorescence-based counterscreen for potentiators or agonists of NPY-Y2: cell-based high-throughput dose response assay for potentiators or agonists of NPY-Y1.", "format": "functional"}, "HEK293": {"system": "HEK293", "assay": "Fluorescence-based counterscreen for potentiators or agonists of NPY-Y2: cell-based high-throughput dose response assay to identify inhibitors of cyclic nucleotide gated ion channel (CNGC) activity. In this assay, the parental HEK293 cell line transfected with a cyclic-nucleotide gated ion channel (CNGC)-based cAMP sensor is used to measure inhibition of isoproterenol-induced CNGC activity by test compound.", "format": "functional", "conditions": "Homo sapiens"}, "[2]": {"system": "Streptococcus sp. 'group A'", "assay": "growth inhibition of control SK(-) GAS strain, dose response, counter-screen for streptokinase expression inhibitor project, luminescence, kanamycin, BacTiterGlo, confirmation (AID 1900)", "format": "functional, organism-based"}, "[3]": {"target": "T2, Neuropeptide Y receptor type 2 (Homo sapiens, UniProt P49146)", "T2 sequence (P49146 whole entry)": "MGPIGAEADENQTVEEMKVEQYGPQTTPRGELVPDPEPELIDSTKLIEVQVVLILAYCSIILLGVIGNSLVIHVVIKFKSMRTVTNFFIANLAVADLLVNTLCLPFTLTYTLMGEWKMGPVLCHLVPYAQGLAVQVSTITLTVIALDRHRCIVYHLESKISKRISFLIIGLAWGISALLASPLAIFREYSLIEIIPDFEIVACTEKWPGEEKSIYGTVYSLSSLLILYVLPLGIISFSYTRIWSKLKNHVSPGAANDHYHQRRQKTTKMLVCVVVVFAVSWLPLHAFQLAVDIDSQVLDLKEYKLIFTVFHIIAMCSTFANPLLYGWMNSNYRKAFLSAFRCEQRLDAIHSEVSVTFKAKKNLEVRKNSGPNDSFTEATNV", "assay": "Fluorescence-based cell-based high-throughput dose response assay for agonists of NPY-Y2. [Related pubchem assays: 1703 (Screening assay (CNGC inhibitors).), 1359 (Screening assay (NPY-Y2 potentiators or agonists).), 1304 (Screening assay (NPY-Y1 potentiators or agonists).), 1710 (Screening assay (NPY-Y2 agonists).), 1791 (Summary AID.)]", "format": "functional"}, "Streptokinase A": {"target": "T3, Streptokinase A (Streptococcus pyogenes serotype M1, UniProt P10520)", "T3 sequence (P10520 whole entry)": "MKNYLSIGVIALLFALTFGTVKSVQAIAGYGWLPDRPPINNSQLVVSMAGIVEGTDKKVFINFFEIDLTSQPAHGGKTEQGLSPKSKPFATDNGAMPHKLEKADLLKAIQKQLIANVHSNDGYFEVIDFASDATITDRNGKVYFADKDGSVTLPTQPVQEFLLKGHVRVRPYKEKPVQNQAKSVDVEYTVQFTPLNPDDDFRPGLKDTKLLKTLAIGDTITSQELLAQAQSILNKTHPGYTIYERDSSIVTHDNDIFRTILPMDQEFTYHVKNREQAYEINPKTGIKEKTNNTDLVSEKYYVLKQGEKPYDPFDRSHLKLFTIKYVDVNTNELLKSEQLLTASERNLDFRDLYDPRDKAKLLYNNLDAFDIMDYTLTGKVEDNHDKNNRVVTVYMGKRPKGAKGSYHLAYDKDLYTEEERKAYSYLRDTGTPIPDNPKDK", "assay": "S. pyogenes streptokinase expression inhibitors, potency, dose response, plasminogen activation absorbance, OD405 (AID 1914);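 note: secreted streptokinase activity via plasminogen activation per viability signal from cell pellet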", "format": "functional, Streptococcus pyogenes M1 GAS"}, "[4]": {"target": "G-protein coupled receptor 55 (Homo sapiens, UniProt Q9Y2T6)", "sequence (Q9Y2T6 whole entry)": "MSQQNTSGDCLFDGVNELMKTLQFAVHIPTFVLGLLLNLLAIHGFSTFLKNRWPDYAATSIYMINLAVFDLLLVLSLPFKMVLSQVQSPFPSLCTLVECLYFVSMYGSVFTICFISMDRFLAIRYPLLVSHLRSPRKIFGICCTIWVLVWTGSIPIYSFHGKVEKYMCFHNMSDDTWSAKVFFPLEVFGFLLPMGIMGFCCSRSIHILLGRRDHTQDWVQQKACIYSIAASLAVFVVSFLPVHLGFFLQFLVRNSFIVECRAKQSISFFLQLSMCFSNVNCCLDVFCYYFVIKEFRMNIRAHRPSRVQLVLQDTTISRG", "assay": "GPR55 antagonists blocking LPI-driven arrestin recruitment, primary screen, imaging, U2OS, beta-arrestin-GFP, LPI agonist (AID 2013);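 note: antagonist potency measured as reduced agonist-driven arrestin aggregation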", "format": "functional"}, "[5]": {"target": "T2, Neuropeptide Y receptor type 2", "assay": "Fluorescence-based cell-based high-throughput dose response assay for potentiators or agonists of NPY-Y2. [Related pubchem assays: 1539 (Screening assay (NPY-Y2 potentiators or agonists).), 1703 (Screening assay (CNGC inhibitors).), 1359 (Screening assay (NPY-Y2 potentiators or agonists).), 1304 (Screening assay (NPY-Y1 potentiators or agonists).) …", "format": "functional"}, "[6]": {"target": "T1, Neuropeptide Y receptor type 1", "assay": "Fluorescence-based counterscreen for agonists of NPY-Y2: cell-based high-throughput dose response assay for agonists of NPY-Y1.", "format": "functional"}, "Streptococcus": {"system": "Streptococcus", "assay": "Group A Streptococcus viability loss, dose response, counter-screen for streptokinase expression inhibitor project, luminescence, BacTiterGlo (AID 1915);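 note: potency for reduction of bacterial viability or growth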", "format": "functional, organism-based"}, "[7]": {"assay": "HeLa cell cytotoxicity, dose response, cytotoxicity control for MgcRacGAP inhibitor project (AID 624300)", "format": "functional"}, "[8]": {"target": "T4, Rac GTPase-activating protein 1 (Homo sapiens, UniProt Q9H0H5)", "T4 sequence (Q9H0H5 whole entry)": "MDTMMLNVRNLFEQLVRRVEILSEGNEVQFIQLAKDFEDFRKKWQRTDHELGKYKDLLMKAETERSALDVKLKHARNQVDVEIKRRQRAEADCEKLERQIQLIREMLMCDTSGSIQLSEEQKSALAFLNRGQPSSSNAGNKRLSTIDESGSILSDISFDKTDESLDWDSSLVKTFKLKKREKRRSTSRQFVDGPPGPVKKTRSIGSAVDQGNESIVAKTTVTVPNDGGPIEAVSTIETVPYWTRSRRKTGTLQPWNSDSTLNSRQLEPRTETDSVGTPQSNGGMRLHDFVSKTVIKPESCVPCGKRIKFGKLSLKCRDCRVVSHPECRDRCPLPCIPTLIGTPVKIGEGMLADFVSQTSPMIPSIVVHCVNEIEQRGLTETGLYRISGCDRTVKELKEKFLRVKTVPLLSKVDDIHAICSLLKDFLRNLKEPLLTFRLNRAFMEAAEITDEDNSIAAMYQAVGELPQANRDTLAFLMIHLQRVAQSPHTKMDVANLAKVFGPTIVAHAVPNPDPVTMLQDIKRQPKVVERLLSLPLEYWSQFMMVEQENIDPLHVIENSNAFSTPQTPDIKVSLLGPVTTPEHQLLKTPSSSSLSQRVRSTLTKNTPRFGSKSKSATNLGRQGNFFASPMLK", "assay": "MgcRacGAP GTPase-activating activity inhibitors, confirmation, biochemical, ADP Hunter fluorescence, primary and confirmatory (AID 624330)", "format": "functional"}, "NADPH oxidase 1": {"target": "T5, NADPH oxidase 1 (Homo sapiens, UniProt Q9Y5S8)", "T5 sequence (Q9Y5S8 whole entry)": "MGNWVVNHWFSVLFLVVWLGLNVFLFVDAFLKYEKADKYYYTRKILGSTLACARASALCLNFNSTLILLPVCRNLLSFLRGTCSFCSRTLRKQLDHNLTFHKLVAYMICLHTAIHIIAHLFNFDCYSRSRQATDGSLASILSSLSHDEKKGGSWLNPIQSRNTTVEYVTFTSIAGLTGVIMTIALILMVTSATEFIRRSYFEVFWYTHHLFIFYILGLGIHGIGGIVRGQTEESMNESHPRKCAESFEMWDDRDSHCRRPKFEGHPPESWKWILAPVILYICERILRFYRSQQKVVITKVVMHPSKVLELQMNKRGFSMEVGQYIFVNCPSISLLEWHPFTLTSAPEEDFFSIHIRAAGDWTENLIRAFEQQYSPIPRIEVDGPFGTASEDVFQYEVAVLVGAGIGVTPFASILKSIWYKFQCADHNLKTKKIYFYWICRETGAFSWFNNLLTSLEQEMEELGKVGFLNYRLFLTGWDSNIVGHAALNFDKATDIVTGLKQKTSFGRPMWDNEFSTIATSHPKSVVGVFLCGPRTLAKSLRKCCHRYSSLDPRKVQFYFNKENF", "assay": "Luminescence-based cell-based dose response assay to identify inhibitors of NADPH oxidase 1 (NOX1).", "format": "functional"}, "[9]": {"target": "Induced myeloid leukemia cell differentiation protein Mcl-1 (Homo sapiens, UniProt Q07820)", "sequence (Q07820 whole entry)": "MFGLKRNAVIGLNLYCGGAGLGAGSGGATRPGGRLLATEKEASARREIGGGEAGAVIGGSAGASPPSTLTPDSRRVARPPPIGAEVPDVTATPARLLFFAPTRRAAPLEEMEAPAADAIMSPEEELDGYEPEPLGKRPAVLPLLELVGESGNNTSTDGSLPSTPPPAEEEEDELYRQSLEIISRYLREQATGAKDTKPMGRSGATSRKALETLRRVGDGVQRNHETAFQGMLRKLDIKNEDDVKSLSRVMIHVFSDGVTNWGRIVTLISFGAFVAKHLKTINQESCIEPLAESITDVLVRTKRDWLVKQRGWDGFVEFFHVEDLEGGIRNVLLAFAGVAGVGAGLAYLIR", "format": "functional"}, "[10]": {"assay": "A High Throughput Confirmatory Assay used to Identify Novel Compounds that Inhibit Mycobacterium Tuberculosis in the absence of Glycerol.", "format": "functional"}}, "note": "Calls of active or inactive are those of the source."}
{"smiles": "CCOC(=O)c1nc(Nc2ccc(Nc3ccccc3)cc2)c2ccccc2n1", "values": [{"measurement": "EC50", "setting": "[1]", "value": "13.2 µM (not active)"}, {"measurement": "EC50", "setting": "HEK293", "value": "> 11.8 µM (not active)"}, {"measurement": "EC50", "setting": "[2]", "value": "10.2 µM (active)"}, {"measurement": "EC50", "setting": "[3]", "value": "10.1 µM (not active)"}, {"measurement": "EC50", "setting": "Streptokinase A", "value": "> 150 µM (not active)"}, {"measurement": "IC50", "setting": "[4]", "value": "2.48 µM (active)"}, {"measurement": "EC50", "setting": "[5]", "value": "13.2 µM (not active)"}, {"measurement": "EC50", "setting": "[6]", "value": "10.9 µM (not active)"}, {"measurement": "EC50", "setting": "Streptococcus", "value": "12.8 µM (active)"}, {"measurement": "CC50", "setting": "[7]", "value": "44.8 µM (active)"}, {"measurement": "IC50", "setting": "[8]", "value": "105 µM (active)"}]}
{"smiles": "CCN(CC)c1ccc(NC(=O)Nc2cccc(C(C)=O)c2)cc1", "values": [{"measurement": "IC50", "setting": "NADPH oxidase 1", "value": "83 nM (active)"}, {"measurement": "IC50", "setting": "[9]", "value": "3.13 µM (not active)"}]}
{"smiles": "COC(=O)[C@@H](NC(=O)O[C@@H]1C(=O)c2ccc(OC)cc2O[C@H]1c1cccc(C(F)(F)F)c1)C(C)C", "values": [{"measurement": "IC50", "setting": "[10]", "value": "> 100 µM (active)"}]}
